Common to all, as to test: growth of human tumour cells (NCI), 48 h
Assay [1] deals with CAKI-1 renal.
Assay [2] deals with EKVX NSCLC.
For assay [3], the system named is HCC-2998 colon.
Assay [4] concerns HCT-116 colon.
For assay [5], the system named is HS 578T breast.
Assay [6] relates to MOLT-4 leukemia.
Assay [7] relates to NCI-H226 lung.
The test system of assay [8] is NCI-H23 lung.
The subject of assay [9] is SK-MEL-2 melanoma.
Assay [10] relates to UACC-257 melanoma.

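Assay format: 96-well plates, 48-hour exposure. Abbreviation: GI50, concentration required for 50% inhibition of growth. TGI denotes the concentration required for complete inhibition of growth.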 Bounds are passed on as bounds.

`CC(CN=C(CC(=O)c1ccc(Br)cc1)c1ccccc1)N=C(CC(=O)c1ccc(Br)cc1)c1ccccc1` (stereo not given): the GI50 in [1] is 67.1 µM; in [2], 21 µM; in assay [3], 99.1 µM; in [4] it was 2.75 µM; in [5], more than 100 µM; in assay [6], 7.95 µM. The GI50 is 67.3 µM in [7], 8.9 µM in assay [8], 3.48 µM in assay [9] and 7.77 µM in [10]. The TGI in [1], in assay [2], in [3], in [4], in assay [5] and in assay [6] was more than 100 µM each time. The TGI in assay [7], in assay [8], in assay [9] and in assay [10] was more than 100 µM throughout.

With `Cc1ccc(Cl)cc1Nc1nc(C(F)(F)F)ccc1C(=O)Nc1cccc(C(F)(F)F)c1`, the GI50 is 4.14 µM in [1]; 2.7 µM in assay [2]; 1.78 µM in assay [3]; 2.39 µM in [4]; 4.66 µM in [5]; 2.77 µM in assay [6]. For the same compound, the GI50 in assay [7] was 6 µM; in assay [8], 2.63 µM; in assay [9], 2.45 µM; in [10], 2.93 µM. Moreover, the TGI in assay [1] was determined as 18.1 µM; in [2] it was 10.9 µM; in assay [3], 4.46 µM; in assay [4], 10.3 µM; in assay [5] it was 20 µM; in assay [6], 10 µM. Besides, the TGI was found to be 25.5 µM in assay [7], 11.9 µM in [8], 6.58 µM in assay [9] and 8.35 µM in assay [10].

Take `CC1(C)CCC[C@]23C(=O)O[C@](O)(C(=O)C4=C[C@@](C)(/C=C/CCCc5ccc6ccc7cccc8ccc5c6c78)CC[C@@]42O)[C@@H]13`: the GI50 was 0.183 µM in [1]; 0.216 µM in assay [2]; 0.176 µM in [3]; 0.132 µM in assay [4]; 0.251 µM in [5]; 0.265 µM in assay [6]. In addition, the GI50 in assay [7] was 0.166 µM; in assay [8], 0.178 µM; in assay [9], 0.217 µM; in assay [10], 0.224 µM. Also, the TGI in assay [1] amounted to 0.364 µM; in [2] it was 0.485 µM; in assay [3] it was 0.323 µM; in [4], 0.299 µM; in assay [5] it was 0.812 µM; in [6], 11.2 µM. Besides, the TGI was 0.328 µM in [7], 0.376 µM in assay [8], 0.471 µM in assay [9] and 0.586 µM in [10].

For the compound `CC[C@@]1(O)C(=O)NCc2c1cc1n(c2=O)Cc2cc3ccccc3nc2-1`, the GI50 is 0.754 µM in assay [1]; more than 47.9 µM in assay [2]; 74 µM in assay [3]; 2.75 µM in assay [4]; more than 100 µM in assay [5]; 0.3 µM in [6]. The GI50 in assay [7] is more than 100 µM; in assay [8], 1.8 µM; in [9], more than 100 µM; in assay [10] it was 7.95 µM. For the same compound, the TGI in assay [1] is 11 µM; in [2], more than 100 µM; in [3], more than 100 µM; in assay [4] it was more than 74.2 µM; in assay [5], more than 100 µM; in assay [6], 2.2 µM. In addition, the TGI was more than 100 µM in [7], 5.86 µM in assay [8], more than 100 µM in assay [9] and more than 59.1 µM in assay [10].

(Values after PubChem BioAssay (NCI).)
